In ChEMBL document CHEMBL1201862, “PubChem BioAssay data set” (2004):
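Compound exposure: 48 hours, 5 concentrations, 96-well plates. The concentration for 50% growth inhibition is given as GI50.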 Activity calls are given as the source filed them. Cut-off read from the data, not from the text of the source: active = GI50 up to about 1.1 µM and inactive = higher.

Key:
Assay in all cases: DTP human tumour cell line panel, 48 h
786-0 = test system: 786-0
A498 = test system: A498
A549 = test system: A549
ACHN = test system: ACHN
BT-549 = test system: BT-549
CAKI-1 = test system: CAKI-1
CCRF-CEM = test system: CCRF-CEM
COLO 205 = test system: COLO 205
DU-145 = test system: DU-145
EKVX = test system: EKVX
HCC 2998 = test system: HCC 2998
HCT-116 = test system: HCT-116
HCT-15 = test system: HCT-15
HL-60 = test system: HL-60
HOP-62 = test system: HOP-62
HOP-92 = test system: HOP-92
HT-29 = test system: HT-29
Hs-578T = test system: Hs-578T
IGROV-1 = test system: IGROV-1
K562 = test system: K562
KM12 = test system: KM12
LOX IMVI = test system: LOX IMVI
M14 = test system: M14
MCF7 = test system: MCF7
MDA-MB-231 = test system: MDA-MB-231
MDA-MB-435 = test system: MDA-MB-435
MDA-N = test system: MDA-N
MOLT-4 = test system: MOLT-4
Malme-3M = test system: Malme-3M
NCI-H226 = test system: NCI-H226
NCI-H23 = test system: NCI-H23
NCI-H460 = test system: NCI-H460
NCI/ADR-RES = test system: NCI/ADR-RES
OVCAR-3 = test system: OVCAR-3
OVCAR-4 = test system: OVCAR-4
OVCAR-5 = test system: OVCAR-5
OVCAR-8 = test system: OVCAR-8
PC-3 = test system: PC-3
RPMI-8226 = test system: RPMI-8226
RXF 393 = test system: RXF 393
SF-268 = test system: SF-268
SF-295 = test system: SF-295
SF-539 = test system: SF-539
SK-MEL-28 = test system: SK-MEL-28
SK-MEL-2 = test system: SK-MEL-2
SK-MEL-5 = test system: SK-MEL-5
SK-OV-3 = test system: SK-OV-3
SN12C = test system: SN12C
SNB-19 = test system: SNB-19
SNB-75 = test system: SNB-75
SR = test system: SR
SW-620 = test system: SW-620
T47D = test system: T47D
TK-10 = test system: TK-10
U-251 = test system: U-251
UACC-257 = test system: UACC-257
UACC-62 = test system: UACC-62
UO-31 = test system: UO-31

In the case of `CC1(c2cccc(C(F)(F)F)c2)CC(c2cccc(C(F)(F)F)c2)=C(C#N)C(=C(C#N)C#N)N1` (configuration not stated), the GI50 (786-0) is reported as 17 µM (inactive), the GI50 (A498) is reported as 18.1 µM (inactive) and the GI50 (A549) is reported as 19.5 µM (inactive). The GI50 (ACHN) was 17.2 µM (inactive), the GI50 (BT-549) was 18.7 µM (inactive) and the GI50 (CAKI-1) was 18.7 µM (inactive). For the same compound, the GI50 (CCRF-CEM) was 2.88 µM (inactive), the GI50 (COLO 205) was 14.6 µM (inactive) and the GI50 (DU-145) was 17.2 µM (inactive). The GI50 (EKVX) was 17.9 µM (inactive), the GI50 (HCC 2998) was 17.2 µM (inactive) and the GI50 (HCT-116) was 15.2 µM (inactive). The GI50 (HCT-15) was 16.4 µM, the GI50 (HL-60) was 15.5 µM (inactive) and the GI50 (HOP-62) was 17.1 µM (inactive). The GI50 (HOP-92) was 2.3 µM (inactive), the GI50 (HT-29) was 18.8 µM (inactive) and the GI50 (Hs-578T) was 17.3 µM (inactive). The GI50 (IGROV-1) was 16.6 µM (inactive), the GI50 (K562) was 15.2 µM (inactive) and the GI50 (KM12) was 16.5 µM (inactive). The GI50 (LOX IMVI) was 17.7 µM (inactive), the GI50 (M14) was 20.2 µM (inactive) and the GI50 (MCF7) was 16.7 µM (inactive). The GI50 (MDA-MB-231) was 23 µM (inactive), the GI50 (MDA-MB-435) was 18.1 µM (inactive) and the GI50 (MDA-N) was 18 µM (inactive). For the same compound, the GI50 (MOLT-4) was 19.2 µM (inactive), the GI50 (Malme-3M) was 17.1 µM (inactive) and the GI50 (NCI-H226) was 18.2 µM (inactive). For the same compound, the GI50 (NCI-H23) was 19.3 µM (inactive), the GI50 (NCI-H460) was 19.3 µM (inactive) and the GI50 (NCI/ADR-RES) was 19.5 µM (inactive). The GI50 (OVCAR-3) was 11.9 µM (inactive), the GI50 (OVCAR-4) was 16 µM (inactive) and the GI50 (OVCAR-5) was 18.2 µM (inactive). For the same compound, the GI50 (OVCAR-8) was 17.5 µM (inactive), the GI50 (PC-3) was 19.4 µM (inactive) and the GI50 (RPMI-8226) was 16.4 µM (inactive). The GI50 (RXF 393) was 16.8 µM (inactive), the GI50 (SF-268) was 15 µM (inactive) and the GI50 (SF-295) was 16.6 µM (inactive). The GI50 (SF-539) was 17.4 µM (inactive), the GI50 (SK-MEL-28) was 16 µM (inactive) and the GI50 (SK-MEL-2) was 19.6 µM (inactive). The GI50 (SK-MEL-5) was 15.2 µM (inactive), the GI50 (SK-OV-3) was 16.1 µM (inactive) and the GI50 (SN12C) was 18.1 µM (inactive). The GI50 (SNB-19) was 19.4 µM (inactive), the GI50 (SNB-75) was 19.3 µM (inactive) and the GI50 (SR) was 12.6 µM (inactive). For the same compound, the GI50 (SW-620) was 15 µM (inactive), the GI50 (T47D) was 17 µM (inactive) and the GI50 (TK-10) was 16.8 µM (inactive). The GI50 (U-251) was 18.4 µM (inactive), the GI50 (UACC-257) was 15.9 µM (inactive) and the GI50 (UACC-62) was 16.7 µM (inactive). The GI50 (UO-31) was 18.6 µM (inactive).
For `CN(C)/C=N/c1ccc2[nH]c3ccccc3c2c1`, the GI50 (786-0) was 25.1 µM (inactive), the GI50 (A498) was 20.9 µM (inactive) and the GI50 (A549) was 39.7 µM (inactive). The GI50 (ACHN) was 48.1 µM (inactive), the GI50 (BT-549) was > 100 µM (inactive) and the GI50 (CAKI-1) was 35.2 µM (inactive). The GI50 (CCRF-CEM) was 30.9 µM (inactive), the GI50 (COLO 205) was 16.6 µM (inactive) and the GI50 (DU-145) was > 100 µM (inactive). The GI50 (EKVX) was 65 µM (inactive), the GI50 (HCT-116) was 34.6 µM (inactive) and the GI50 (HCT-15) was 20.6 µM. The GI50 (HL-60) was 18.1 µM (inactive), the GI50 (HOP-62) was 23.2 µM (inactive) and the GI50 (HOP-92) was 15.8 µM (inactive). The GI50 (HT-29) was 19.8 µM (inactive), the GI50 (Hs-578T) was 38.5 µM (inactive) and the GI50 (IGROV-1) was 43.5 µM (inactive). The GI50 (K562) was 20.4 µM (inactive), the GI50 (LOX IMVI) was 15.7 µM (inactive) and the GI50 (M14) was 15.1 µM (inactive). For the same compound, the GI50 (MCF7) was 32.1 µM (inactive), the GI50 (MDA-MB-231) was 19.8 µM (inactive) and the GI50 (MDA-MB-435) was 18 µM (inactive). The GI50 (MDA-N) was 18.2 µM (inactive), the GI50 (MOLT-4) was 27.3 µM (inactive) and the GI50 (Malme-3M) was 22.1 µM (inactive). The GI50 (NCI-H226) was 27.4 µM (inactive), the GI50 (NCI-H23) was 49.3 µM (inactive) and the GI50 (NCI/ADR-RES) was 53.7 µM (inactive). The GI50 (OVCAR-3) was > 100 µM (inactive), the GI50 (OVCAR-4) was > 100 µM (inactive) and the GI50 (OVCAR-5) was 28.4 µM (inactive). The GI50 (OVCAR-8) was 37.7 µM (inactive), the GI50 (PC-3) was 36.1 µM (inactive) and the GI50 (RPMI-8226) was 22.6 µM (inactive). The GI50 (RXF 393) was 25.8 µM (inactive), the GI50 (SF-268) was 64.6 µM (inactive) and the GI50 (SF-295) was 31.3 µM (inactive). For the same compound, the GI50 (SF-539) was 20.8 µM (inactive), the GI50 (SK-MEL-28) was 23.3 µM (inactive) and the GI50 (SK-MEL-2) was 16.7 µM (inactive). The GI50 (SK-MEL-5) was 16.7 µM (inactive), the GI50 (SK-OV-3) was 61.7 µM (inactive) and the GI50 (SN12C) was 52.4 µM (inactive). For the same compound, the GI50 (SNB-19) was > 100 µM (inactive), the GI50 (SNB-75) was 37.7 µM (inactive) and the GI50 (SR) was 12.2 µM (inactive). For the same compound, the GI50 (T47D) was 30.6 µM (inactive), the GI50 (TK-10) was 28.2 µM (inactive) and the GI50 (U-251) was 28.8 µM (inactive). The GI50 (UACC-257) was 15.9 µM (inactive), the GI50 (UACC-62) was 21 µM (inactive) and the GI50 (UO-31) was 29 µM (inactive).
`COc1ccc(CC2Cc3ccccc3CC(=O)N2)cc1OC` (configuration not stated) was tested, and the GI50 (786-0) was > 100 µM (inactive), the GI50 (A498) was > 100 µM (inactive) and the GI50 (A549) was > 100 µM (inactive). The GI50 (ACHN) was > 100 µM (inactive), the GI50 (BT-549) was 37.4 µM (inactive) and the GI50 (CAKI-1) was > 100 µM (inactive). For the same compound, the GI50 (CCRF-CEM) was 28.1 µM (inactive), the GI50 (COLO 205) was > 100 µM (inactive) and the GI50 (DU-145) was > 100 µM (inactive). For the same compound, the GI50 (EKVX) was 89.7 µM (inactive), the GI50 (HCC 2998) was > 100 µM (inactive) and the GI50 (HCT-116) was 98.9 µM (inactive). The GI50 (HCT-15) was over 100 µM, the GI50 (HL-60) was 21.4 µM (inactive) and the GI50 (HOP-62) was > 100 µM (inactive). The GI50 (HOP-92) was 89.5 µM (inactive), the GI50 (HT-29) was > 100 µM (inactive) and the GI50 (Hs-578T) was > 100 µM (inactive). For the same compound, the GI50 (IGROV-1) was > 100 µM (inactive), the GI50 (K562) was 44.9 µM (inactive) and the GI50 (KM12) was 39.2 µM (inactive). The GI50 (LOX IMVI) was 32.8 µM (inactive), the GI50 (M14) was 54 µM (inactive) and the GI50 (MCF7) was 52 µM (inactive). For the same compound, the GI50 (MDA-MB-231) was > 100 µM (inactive), the GI50 (MDA-MB-435) was 55.8 µM (inactive) and the GI50 (MDA-N) was 52.5 µM (inactive). For the same compound, the GI50 (MOLT-4) was 24.6 µM (inactive), the GI50 (Malme-3M) was > 100 µM (inactive) and the GI50 (NCI-H226) was 43.6 µM (inactive). For the same compound, the GI50 (NCI-H23) was 87.7 µM (inactive), the GI50 (NCI-H460) was 42.8 µM (inactive) and the GI50 (NCI/ADR-RES) was 27.5 µM (inactive). For the same compound, the GI50 (OVCAR-3) was 97.3 µM (inactive), the GI50 (OVCAR-4) was 57 µM (inactive) and the GI50 (OVCAR-5) was > 100 µM (inactive). The GI50 (OVCAR-8) was 75 µM (inactive), the GI50 (PC-3) was 40.3 µM (inactive) and the GI50 (SF-295) was 86.7 µM (inactive). The GI50 (SF-539) was > 100 µM (inactive), the GI50 (SK-MEL-28) was > 100 µM (inactive) and the GI50 (SK-MEL-2) was > 100 µM (inactive). For the same compound, the GI50 (SK-MEL-5) was 14.3 µM (inactive), the GI50 (SK-OV-3) was > 100 µM (inactive) and the GI50 (SN12C) was > 100 µM (inactive). The GI50 (SNB-19) was > 100 µM (inactive), the GI50 (SNB-75) was 48.2 µM (inactive) and the GI50 (SR) was 67.9 µM (inactive). For the same compound, the GI50 (SW-620) was > 100 µM (inactive), the GI50 (T47D) was 17.3 µM (inactive) and the GI50 (TK-10) was > 100 µM (inactive). The GI50 (U-251) was > 100 µM (inactive), the GI50 (UACC-257) was 47.4 µM (inactive) and the GI50 (UACC-62) was 48.2 µM (inactive). The GI50 (UO-31) was > 100 µM (inactive).
